Results from EP1142883A1, “NOVEL HETEROCYCLIC COMPOUNDS AND DRUG COMPOSITIONS CONTAINING THE SAME” (Asahi Kasei Kabushiki Kaisha, priority 1998, dated 2000).

Experiments:
human β3 = molecular target: T1, human β3 (Homo sapiens, UniProt P13945); test: Human β3-agonist activities: cAMP in CHO cells transfected with human β3 gene; type: cell-based; conditions: for EC50 / *Intrinsic Activity (%): cAMP, 30 minutes, CHO cells expressing human β3; for EC50: read-out: ED50 (the source's name); for *Intrinsic Activity (%): relative value as compared with isoproterenol; for Emax: CHO, read-out: *Intrinsic Activity (%)
T1 construct: the full length human β3 gene was obtained from a human genomic library; expressed in transfected cells; host or cells: CHO (Chinese hamster ovary) cells, pcDNA3 vector, geneticin selection
Method: Human β3-agonist activities were determined using CHO (Chinese hamster ovary) cells transfected with pcDNA3 (mfd. by Invitrogen) to which human β3 gene had been inserted. Human β3 fragment was first obtained from human adipose tissue cDNA (mfd. by Clonetech) by PCR using the primer of β3 (Krief, et al., J. Clin. Invest., 91, pp. 344-349 (1993)). The human β3 fragment obtained was then used as a probe and then the full length human β3 gene was obtained from a human genomic library (mfd. by Clonetech).
The above cells were cultured in a Ham F-12 medium supplemented with 10% fetal bovine serum (mfd. by Dainippon Pharmaceutical), 400 µg/mL geneticin (Gibco BRL), 100 U/mL penicillin and 100 µg/mL streptomycin. After placing these cells (5×10^5) into a 6-well plate and culturing them for 24 hours, they were allowed to stand on a serum-free Ham F-12 medium for 2 hours. The compound was first dissolved in DMSO, repeatedly diluted by ten times with Ham F-12 supplemented with 1 mM isobutylmethylxanthine and 1 mM ascorbic acid to a final concentration of 10^-5 to 10^-12 M, and then added to the cells.
After the cells were cultured for 30 minutes, the medium was removed followed by addition of 0.5 mL of 1 N NaOH. The medium was allowed to stand for 20 minutes and then 0.5 mL of 1 N acetic acid was added to the medium. The medium was stirred and centrifuged followed by quantitating cAMP with cAMP EIA kit (mfd. by Cayman). […]

Caco-2 cell = test: Permeability through human small intestine epithelium (Caco-2 cell layer); conditions: Caco-2 layer, cup side pH 6.5, base side pH 7.4, drug 20-40 µM, 37°C
Text: (§1) Human colon adenocarcinoma, Caco-2 cell, when cultured, spontaneously differenciates to form a cell layer consisting of a polar single layer having microvillus similar to small intestine epithelial cell. The presence of tight junction has been found out in the membrane formed. Therefore, the above cell layer can be used as a model system of human small intestine epithelium and is recognized as the simplest system to evaluate the permeability through a membrane of a drug orally administered to human. The specific experimental method is as follows.
(§2) Before the cells reached confluence, DMEM was removed and the flask was washed with PBS (phosphate buffered saline, pH 7.2, Ca, Mg free (Gibco BRL)) and treated with trypsin/EDTA to peel off the cells, which were then harvested.
(§3) After centrifugation (1000 rpm, 5 min), the cells were resuspended in DMEM at 4.4×10^5 cells/mL. The cells were seeded into Transwell cell culture chamber (mfd. by Costar) having a collagen-coated membrane filter (3 µm pores, 0.33 cm^2 growth area) at 0.15 mL/well (2×10^5 cells/cm^2, 24 well). After seeding, DMEM was renewed every other day. After culturing for 18 to 25 days, a membrane formed having a membrane resistance of at least 200 Ω · cm^2 was applied to the drug permeation experiment.
(§4) DMEMs in the cup side and base side of Transwell were removed and then replaced with a buffer for the permeation experiment (HBSS (Hanks Balanced Salt Solution, Gibco BRL), 10 mM Mes, pH 6.5 (mfd. by DOJINDO) or 10 mM Hepes, pH 7.4 (mfd. by DOJINDO) containing 25 mM glucose and 0.05% Tween 80). The cup side buffer (0.15 mL) was maintained at pH 6.5 and the base side buffer (0.8 mL) was maintained at pH 7.4. After pre-incubation at 37°C for 10 minutes, the cup side buffer was replaced with the buffer (pH 6.5) containing a drug (20-40 µM). With additionally incubating at 37°C, 80 µL aliquot of the base side buffer was sampled with the passage of time to quantitate the amount of the drug permeated into the base side buffer.
(§5) The amount of the drug contained in the base side buffer sampled with the passage of time was divided by the time to calculate the amount of the drug permeated per unit time (sec). It was then divided by the concentration of the drug added and the surface area of the membrane to calculate the permeability coefficient (Papp). That is, the permeability coefficient (Papp) is obtained by the following calculating formula.
(§6) In this connection, the quantitation of the drug was carried out with LC/MS or HPLC (detecting with fluorescence). The conditions of LC/MS and HPLC are as follows.

[1] = as above; conditions: human, Caco-2
Text: as §1, §2, §3, §4, §5, §6

T1 sequence (P13945 whole entry): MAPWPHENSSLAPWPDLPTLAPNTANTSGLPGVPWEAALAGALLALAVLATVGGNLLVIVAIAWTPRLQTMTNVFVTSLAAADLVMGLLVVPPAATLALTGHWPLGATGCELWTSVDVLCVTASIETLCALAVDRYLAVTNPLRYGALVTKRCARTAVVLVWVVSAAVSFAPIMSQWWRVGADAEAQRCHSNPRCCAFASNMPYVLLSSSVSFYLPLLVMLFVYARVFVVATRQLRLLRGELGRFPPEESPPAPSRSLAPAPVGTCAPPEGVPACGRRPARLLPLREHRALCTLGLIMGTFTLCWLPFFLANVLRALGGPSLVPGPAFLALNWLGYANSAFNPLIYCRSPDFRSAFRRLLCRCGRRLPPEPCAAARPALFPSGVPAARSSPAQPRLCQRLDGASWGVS

Row | *Intrinsic Activity (%) (human β3) | Permeability Coefficient Papp × 10^-6 (cm/s) (Caco-2 cell) | SMILES | EC50 (human β3) [µM] | Emax (human β3) [%] | Papp A→B [1] [nm/s]
1 | 76 | 0.78 × 10^-6 cm/s | CN(C)S(=O)(=O)n1c(=O)oc2ccc([C@@H](O)CNCCOc3ccc4c(c3)[nH]c3ccccc34)cc21 [Example 7, (R)-3-[(dimethylamino)sulfonyl]-5-[2-[2-(9H-carbazol-2-yloxy)ethylamino]-1-hydroxyethyl]-3-hydrobenzoxazol-2-one] | 0.1 |  | 
2 | 99 | 0.54 × 10^-6 cm/s | O=c1[nH]c2cc([C@@H](O)CNCCOc3ccc4c(c3)[nH]c3ccccc34)ccc2o1 [Example 10, (R)-5-[2-[2-(9H-carbazol-2-yloxy)ethylamino]-1-hydroxyethyl]-3-hydrobenzoxazol-2-one] | 0.17 |  | 
3 |  |  | CS(=O)(=O)N1CCCOc2ccc([C@@H](O)CNCCOc3ccc4c(c3)[nH]c3ccccc34)cc21 [Example 4, (R)-7-[2-[2-(9H-carbazol-2-yloxy)ethylamino]-1-hydroxyethyl]-5-(methylsulfonyl)-2H,3H,4H-benzo[b]1,4-oxazepine] | 0.62 | 107 | 19.3
4 |  |  | CS(=O)(=O)N1CCOc2ccc([C@@H](O)CNCCOc3ccc4c(c3)[nH]c3ccccc34)cc21 [Example 2, (R)-6-[2-[2-(9H-carbazol-2-yloxy)ethylamino]-1-hydroxyethyl]-4-(methylsulfonyl)-2,3-dihydro-1,4-benzoxazine] | 0.012 | 69 | 9.3
5 |  |  | CN(C)S(=O)(=O)n1c(=S)oc2ccc([C@@H](O)CNCCOc3ccc4c(c3)[nH]c3ccccc34)cc21 [Example 8, (R)-3-[(dimethylamino)sulfonyl]-5-[2-[2-(9H-carbazol-2-yloxy)ethylamino]-1-hydroxyethyl]-3-hydrobenzoxazol-2-thione] | 0.61 | 99 | 
6 |  |  | CS(=O)(=O)N1COc2ccc([C@@H](O)CNCCOc3ccc4c(c3)[nH]c3ccccc34)cc21 [Example 3, (R)-5-[2-[2-(9H-carbazol-2-yloxy)ethylamino]-1-hydroxyethyl]-3-(methylsulfonyl)-2,3-dihydrobenzoxazole] | 0.065 | 70 | 10.3

Row | SMILES | *Intrinsic Activity (%) (human β3) | Permeability Coefficient Papp × 10^-6 (cm/s) (Caco-2 cell) | EC50 (human β3) [µM] | Emax (human β3) [%] | Papp A→B [1] [nm/s]
7 | CC(C)NCC(O)c1ccc(O)c(O)c1 (stereo not drawn) [Isoproterenol, reference compound] | 100 |  |  |  | 
